One assay has as its target human TLR7 (Homo sapiens (Human), UniProt Q9NYK1). The assay can be described thus: TLR7 inhibition reporter assay (HEK-Blue cells, SEAP reporter, gardiquimod stimulation). Particulars: HEK-Blue cells overexpressing human TLR7, gardiquimod 7.5 μM. It is filed as cell-based. On the technique in general: A reporter such as luciferase makes a cellular process visible.
The target in the next assay is human TLR8 (Homo sapiens (Human), UniProt Q9NR97). The assay can be described thus: TLR8 inhibition reporter assay (HEK-Blue cells, SEAP reporter, R848 stimulation).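 Further: compounds tested from 0.05 nM to 50 µM, 22 h at 37 °C, SEAP measured with HEK-Blue Detection, inhibition relative to agonist plus DMSO versus a known inhibitor.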
A further assay addresses human TLR9 (Homo sapiens (Human), UniProt Q9NR96). Nature of the assay: TLR9 inhibition reporter assay (HEK-Blue cells, SEAP reporter, ODN2006 stimulation).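 Further: compounds tested over 0.05 nM to 50 µM, 22 h incubation, inhibition taken as SEAP signal drop from agonist plus DMSO wells toward a known inhibitor control.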
Setting [1] is: read-out: TLR8 IC50, HEK-Blue cells overexpressing human TLR8, R848 15.9 μM.
Where [2] appears, read: read-out: TLR9 IC50, HEK-Blue cells overexpressing human TLR9, ODN2006 5 nM.
The mark [3] stands for this setting: TLR8 IC50, HEK-Blue cells overexpressing human TLR8, R848 15.9 μM.
[4] abbreviates: TLR9 IC50, HEK-Blue cells overexpressing human TLR9, ODN2006 5 nM.

One may read the IC50 as the concentration needed to halve the response being measured.

Like-named read-outs stand apart in the source and are kept apart here.

Sequence of human TLR7 (Q9NYK1 27-1049): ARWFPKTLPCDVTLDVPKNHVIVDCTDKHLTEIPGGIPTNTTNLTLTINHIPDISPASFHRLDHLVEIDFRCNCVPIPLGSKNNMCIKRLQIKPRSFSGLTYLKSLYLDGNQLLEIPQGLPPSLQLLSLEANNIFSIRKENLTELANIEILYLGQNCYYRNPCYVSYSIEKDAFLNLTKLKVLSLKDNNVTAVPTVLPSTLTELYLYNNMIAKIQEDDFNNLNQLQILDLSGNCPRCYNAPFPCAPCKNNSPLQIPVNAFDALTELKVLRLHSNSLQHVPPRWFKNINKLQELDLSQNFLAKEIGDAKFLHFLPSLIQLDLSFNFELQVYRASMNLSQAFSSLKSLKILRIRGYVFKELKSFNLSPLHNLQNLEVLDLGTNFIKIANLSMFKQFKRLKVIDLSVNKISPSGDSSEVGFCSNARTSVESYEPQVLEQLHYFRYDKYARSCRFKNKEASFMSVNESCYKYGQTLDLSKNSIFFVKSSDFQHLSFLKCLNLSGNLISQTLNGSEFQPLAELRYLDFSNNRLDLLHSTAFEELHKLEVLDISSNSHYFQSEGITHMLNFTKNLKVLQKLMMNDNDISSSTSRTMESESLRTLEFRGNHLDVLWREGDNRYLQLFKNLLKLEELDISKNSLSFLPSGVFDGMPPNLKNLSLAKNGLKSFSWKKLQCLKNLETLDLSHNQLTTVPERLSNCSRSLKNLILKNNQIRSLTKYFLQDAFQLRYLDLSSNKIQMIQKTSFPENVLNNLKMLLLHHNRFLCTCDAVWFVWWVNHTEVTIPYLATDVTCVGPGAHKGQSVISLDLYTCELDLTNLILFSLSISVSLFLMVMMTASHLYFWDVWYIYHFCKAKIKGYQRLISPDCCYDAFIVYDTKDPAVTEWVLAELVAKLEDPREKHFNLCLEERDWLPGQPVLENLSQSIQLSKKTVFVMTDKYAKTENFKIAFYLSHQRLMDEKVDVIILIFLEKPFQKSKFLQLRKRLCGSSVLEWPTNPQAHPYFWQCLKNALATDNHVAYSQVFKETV
Sequence of human TLR8 (Q9NR97 27-1041): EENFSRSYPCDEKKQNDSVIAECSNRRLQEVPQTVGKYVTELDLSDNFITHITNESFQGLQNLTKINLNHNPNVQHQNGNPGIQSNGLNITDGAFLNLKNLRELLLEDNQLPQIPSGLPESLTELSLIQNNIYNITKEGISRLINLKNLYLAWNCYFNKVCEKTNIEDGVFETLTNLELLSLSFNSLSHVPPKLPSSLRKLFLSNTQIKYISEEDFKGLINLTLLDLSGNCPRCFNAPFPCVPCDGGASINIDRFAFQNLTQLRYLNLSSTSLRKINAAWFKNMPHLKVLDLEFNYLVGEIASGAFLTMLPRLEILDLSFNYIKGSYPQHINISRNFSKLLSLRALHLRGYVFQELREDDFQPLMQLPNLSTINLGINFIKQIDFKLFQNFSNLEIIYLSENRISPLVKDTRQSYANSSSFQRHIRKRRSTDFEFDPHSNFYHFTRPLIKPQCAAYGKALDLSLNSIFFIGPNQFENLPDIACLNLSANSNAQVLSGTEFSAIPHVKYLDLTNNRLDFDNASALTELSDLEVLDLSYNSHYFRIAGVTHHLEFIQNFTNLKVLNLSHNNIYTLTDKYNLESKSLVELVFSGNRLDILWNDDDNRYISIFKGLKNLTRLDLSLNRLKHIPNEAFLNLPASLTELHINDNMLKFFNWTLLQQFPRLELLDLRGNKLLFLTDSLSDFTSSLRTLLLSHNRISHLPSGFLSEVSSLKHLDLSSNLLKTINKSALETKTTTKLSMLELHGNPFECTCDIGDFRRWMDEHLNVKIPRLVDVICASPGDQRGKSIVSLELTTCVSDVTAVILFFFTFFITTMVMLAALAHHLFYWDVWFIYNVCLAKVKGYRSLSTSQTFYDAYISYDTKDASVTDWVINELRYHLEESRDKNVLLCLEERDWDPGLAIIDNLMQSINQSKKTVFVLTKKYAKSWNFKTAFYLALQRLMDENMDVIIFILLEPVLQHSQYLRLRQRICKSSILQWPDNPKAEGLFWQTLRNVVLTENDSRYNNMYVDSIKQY
Sequence of human TLR9 (Q9NR96 26-1032): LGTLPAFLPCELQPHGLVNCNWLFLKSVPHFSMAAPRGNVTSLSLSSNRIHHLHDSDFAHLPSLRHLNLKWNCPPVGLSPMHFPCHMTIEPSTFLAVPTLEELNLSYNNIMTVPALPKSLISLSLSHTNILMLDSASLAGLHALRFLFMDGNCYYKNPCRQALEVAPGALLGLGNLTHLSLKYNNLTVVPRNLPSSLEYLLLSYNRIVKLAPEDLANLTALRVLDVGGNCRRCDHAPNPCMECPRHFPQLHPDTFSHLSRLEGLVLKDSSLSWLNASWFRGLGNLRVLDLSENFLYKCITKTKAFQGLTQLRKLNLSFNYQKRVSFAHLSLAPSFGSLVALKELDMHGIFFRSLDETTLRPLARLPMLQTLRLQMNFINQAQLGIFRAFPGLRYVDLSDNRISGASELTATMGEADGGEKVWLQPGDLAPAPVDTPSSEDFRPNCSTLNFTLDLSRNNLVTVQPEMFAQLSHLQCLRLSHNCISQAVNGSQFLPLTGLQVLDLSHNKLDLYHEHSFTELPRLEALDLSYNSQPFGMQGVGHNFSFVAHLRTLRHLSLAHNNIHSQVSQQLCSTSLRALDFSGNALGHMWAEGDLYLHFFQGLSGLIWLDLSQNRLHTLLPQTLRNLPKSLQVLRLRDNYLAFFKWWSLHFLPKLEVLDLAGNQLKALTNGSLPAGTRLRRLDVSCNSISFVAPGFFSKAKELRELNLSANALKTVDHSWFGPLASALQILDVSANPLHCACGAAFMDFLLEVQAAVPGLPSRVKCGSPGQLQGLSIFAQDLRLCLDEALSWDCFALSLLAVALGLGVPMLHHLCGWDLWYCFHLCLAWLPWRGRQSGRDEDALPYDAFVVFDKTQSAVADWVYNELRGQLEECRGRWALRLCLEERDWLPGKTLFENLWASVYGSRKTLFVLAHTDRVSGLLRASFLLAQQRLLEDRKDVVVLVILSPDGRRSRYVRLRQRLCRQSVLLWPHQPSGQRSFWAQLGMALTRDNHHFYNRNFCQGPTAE

For `Cc1cc(-c2[nH]c3ccc(C4CCNCC4)cc3c2CC2CC2)ccn1` [Example 89, 3-(cyclopropylmethyl)-2-(2-methylpyridin-4-yl)-5-(piperidin-4-yl)-1H-indole], the results for the concentration for half-maximal inhibition (IC50) on human TLR7, at human TLR8 (setting [1]) and on human TLR9 (setting [2]) were 13.6 nM, 10.7 nM and 548 nM, respectively.

On to `C=C(c1c(-c2cc(C)nc(C)c2)[nH]c2ccc(C3CCNCC3)cc12)C(F)(F)F` [Example 91, 2-(2,6-dimethylpyridin-4-yl)-5-(piperidin-4-yl)-3-(3,3,3-trifluoroprop-1-en-2-yl)-1H-indole], for which the 50% inhibitory concentration (IC50) against human TLR7 turned out to be 3.2 nM; on human TLR8 (setting [1]) it was 15.3 nM; on human TLR9 (setting [2]), 92 nM.

Take `Cc1cc(-c2[nH]c3ccc(C4CCNCC4)cc3c2C(C)C(F)(F)F)cc(C)n1` (stereo not drawn) [Example 92, 2-(2,6-dimethylpyridin-4-yl)-5-(piperidin-4-yl)-3-(1,1,1-trifluoropropan-2-yl)-1H-indole]: the IC50 amounted to 0.6 nM at human TLR7, 5.2 nM at human TLR8 (setting [1]) and 446 nM at human TLR9 (setting [2]).

As for `Cc1cc(-c2[nH]c3ccc(C4CCNCC4)cc3c2C2CC2)cc(C)n1` [Example 93, 3-cyclopropyl-2-(2,6-dimethylpyridin-4-yl)-5-(piperidin-4-yl)-1H-indole], the values for the half-maximal inhibitory concentration (IC50) at human TLR7, on human TLR8 (setting [1]) and on human TLR9 (setting [2]) were 3.3 nM, 9.2 nM and 122 nM, respectively.

Consider `Cc1cc(-c2cc3cc(C4CCNCC4)ccc3[nH]2)cc(C)n1` [Example 94, 2-(2,6-dimethylpyridin-4-yl)-5-(piperidin-4-yl)-1H-indole], for which the IC50 is 536 nM against human TLR7, 3140 nM on human TLR8 (setting [1]) and 122 nM at human TLR9 (setting [2]).

`Cc1cc(-c2[nH]c3ccc(C4CCNCC4)cc3c2C(C)(C)C)cc(C)n1` [Example 96, 3-(tert-butyl)-2-(2,6-dimethylpyridin-4-yl)-5-(piperidin-4-yl)-1H-indole]: the 50% inhibitory concentration (IC50) is 9.1 nM at human TLR7, 23.3 nM at human TLR8 (setting [1]) and 1320 nM on human TLR9 (setting [2]).

With `Cc1cc(-c2[nH]c3ccc(C4CCN(C(=O)CCN(C)C)CC4)cc3c2C(C)C)cc(C)n1` [Example 97, 3-(dimethylamino)-1-(4-(2-(2,6-dimethylpyridin-4-yl)-3-isopropyl-1H-indol-5-yl)piperidin-1-yl)propan-1-one], the half-maximal inhibitory concentration (IC50) turned out to be 1.3 nM against human TLR7, 5.9 nM on human TLR8 (setting [1]) and 399 nM on human TLR9 (setting [2]).

Consider `Cc1cc(-c2[nH]c3ccc(C4CCN(C(=O)CN(C)C)CC4)cc3c2C(C)C)cc(C)n1` [Example 98, 2-(dimethylamino)-1-(4-(2-(2,6-dimethylpyridin-4-yl)-3-isopropyl-1H-indol-5-yl)piperidin-1-yl)ethan-1-one], for which the figures for the concentration for half-maximal inhibition (IC50) against human TLR7, at human TLR8 (setting [1]) and at human TLR9 (setting [2]) were 1.6 nM, 8 nM and 579 nM, respectively.

As to `CCN(CC)CC(=O)N1CCC(c2ccc3[nH]c(-c4cc(C)nc(C)c4)c(C(C)C)c3c2)CC1` [Example 99, 2-(diethylamino)-1-(4-(2-(2,6-dimethylpyridin-4-yl)-3-isopropyl-1H-indol-5-yl)piperidin-1-yl)ethan-1-one], the IC50 at human TLR7 stood at 3.1 nM; at human TLR8 (setting [1]) it was 13 nM; at human TLR9 (setting [2]), 497 nM.

Regarding `Cc1cc(-c2[nH]c3ccc(C4CCN(C(=O)C5CC(=O)N(C)C5)CC4)cc3c2C(C)C)cc(C)n1` (stereo not drawn) [Example 100, 4-(4-(2-(2,6-dimethylpyridin-4-yl)-3-isopropyl-1H-indol-5-yl)piperidine-1-carbonyl)-1-methylpyrrolidin-2-one], the IC50 was determined as 8 nM against human TLR7, 63.8 nM on human TLR8 (setting [3]) and 22400 nM against human TLR9 (setting [4]).

In the case of `Cc1cc(-c2[nH]c3ccc(C4CCN(C(=O)C5CC(=O)N(C)C5)CC4)cc3c2C(C)C)cc(C)n1` (stereo not drawn) [Example 102, 4-(4-(2-(2,6-dimethylpyridin-4-yl)-3-isopropyl-1H-indol-5-yl)piperidine-1-carbonyl)-1-methylpyrrolidin-2-one], the IC50 is 7.5 nM at human TLR7, 72.6 nM on human TLR8 (setting [3]) and 36200 nM at human TLR9 (setting [4]).

As to `Cc1cc(-c2[nH]c3ccc(C4CCN(C(=O)C5CCCO5)CC4)cc3c2C(C)C)cc(C)n1` (stereo not drawn) [Example 103, (4-(2-(2,6-dimethylpyridin-4-yl)-3-isopropyl-1H-indol-5-yl)piperidin-1-yl)(tetrahydrofuran-2-yl)methanone], the IC50 worked out at 8.6 nM at human TLR7, 80.8 nM at human TLR8 (setting [1]) and 27700 nM on human TLR9 (setting [2]).

In the case of `CCC(CC)C(=O)N1CCC(c2ccc3[nH]c(-c4cc(C)nc(C)c4)c(C(C)C)c3c2)CC1` [Example 104, 1-(4-(2-(2,6-dimethylpyridin-4-yl)-3-isopropyl-1H-indol-5-yl)piperidin-1-yl)-2-ethylbutan-1-one], the figures for the IC50 on human TLR7, on human TLR8 (setting [1]) and at human TLR9 (setting [2]) were 14.9 nM, 249 nM and 12000 nM, respectively.

On to `Cc1cc(-c2[nH]c3ccc(C4CCN(C(=O)C(F)F)CC4)cc3c2C(C)C)cc(C)n1` [Example 105, 1-(4-(2-(2,6-dimethylpyridin-4-yl)-3-isopropyl-1H-indol-5-yl)piperidin-1-yl)-2,2-difluoroethan-1-one], for which the half-maximal inhibitory concentration (IC50) against human TLR7 was determined as 3.3 nM; on human TLR8 (setting [3]) it was 21.8 nM; at human TLR9 (setting [4]), 12000 nM.

For the molecule `Cc1cc(-c2[nH]c3ccc(C4CCN(C(=O)CC5CCOCC5)CC4)cc3c2C(C)C)cc(C)n1` [Example 106, 1-(4-(2-(2,6-dimethylpyridin-4-yl)-3-isopropyl-1H-indol-5-yl)piperidin-1-yl)-2-(tetrahydro-2H-pyran-4-yl)ethan-1-one], the figures for the IC50 against human TLR7, on human TLR8 (setting [1]) and at human TLR9 (setting [2]) were 8.2 nM, 67.4 nM and 30600 nM, respectively.

For `Cc1cc(-c2[nH]c3ccc(C4CCN(C(=O)C5(O)CC5)CC4)cc3c2C(C)C)cc(C)n1` [Example 107, (4-(2-(2,6-dimethylpyridin-4-yl)-3-isopropyl-1H-indol-5-yl)piperidin-1-yl)(1-hydroxycyclopropyl)methanone], the values for the half-maximal inhibitory concentration (IC50) at human TLR7, at human TLR8 (setting [1]) and at human TLR9 (setting [2]) were 14.6 nM, 28.4 nM and 13400 nM, respectively.

As to `Cc1cc(-c2[nH]c3ccc(C4CCN(C(=O)C5CC5(F)F)CC4)cc3c2C(C)C)cc(C)n1` (stereo not drawn) [Example 108, (2,2-difluorocyclopropyl)(4-(2-(2,6-dimethylpyridin-4-yl)-3-isopropyl-1H-indol-5-yl)piperidin-1-yl)methanone], the values for the IC50 against human TLR7, on human TLR8 (setting [1]) and at human TLR9 (setting [2]) were 7.4 nM, 103 nM and 33100 nM, respectively.

With `Cc1cc(-c2[nH]c3ccc(C4CCN(C(=O)C[C@H](C)O)CC4)cc3c2C(C)C)cc(C)n1` [Example 109, (S)-1-(4-(2-(2,6-dimethylpyridin-4-yl)-3-isopropyl-1H-indol-5-yl)piperidin-1-yl)-3-hydroxybutan-1-one], the values for the IC50 against human TLR7, on human TLR8 (setting [1]) and on human TLR9 (setting [2]) were 10.7 nM, 150 nM and 41400 nM, respectively.

As for `Cc1cc(-c2[nH]c3ccc(C4CCN(C(=O)C5CCN(C)CC5)CC4)cc3c2C(C)C)cc(C)n1` [Example 110, (4-(2-(2,6-dimethylpyridin-4-yl)-3-isopropyl-1H-indol-5-yl)piperidin-1-yl)(1-methylpiperidin-4-yl)methanone], the figures for the half-inhibitory concentration (IC50) against human TLR7, at human TLR8 (setting [3]) and against human TLR9 (setting [4]) were 3.9 nM, 8.1 nM and 385 nM, respectively.

`Cc1cc(-c2[nH]c3ccc(C4CCN(C(=O)CCCN(C)C)CC4)cc3c2C(C)C)cc(C)n1` [Example 111, 4-(dimethylamino)-1-(4-(2-(2,6-dimethylpyridin-4-yl)-3-isopropyl-1H-indol-5-yl)piperidin-1-yl)butan-1-one]: the IC50 against human TLR7 turned out to be 75.9 nM; on human TLR8 (setting [1]), 255 nM; on human TLR9 (setting [2]) it was 12900 nM.

As to `Cc1cc(-c2[nH]c3ccc(C4CCN(C(=O)c5cccnc5)CC4)cc3c2C(C)C)cc(C)n1` [Example 112, (4-(2-(2,6-dimethylpyridin-4-yl)-3-isopropyl-1H-indol-5-yl)piperidin-1-yl)(pyridin-3-yl)methanone], the IC50 against human TLR7 worked out at 6.2 nM; at human TLR8 (setting [1]), 99.9 nM; at human TLR9 (setting [2]), 15800 nM.

As to `COCCOCC(=O)N1CCC(c2ccc3[nH]c(-c4cc(C)nc(C)c4)c(C(C)C)c3c2)CC1` [Example 114, 1-(4-(2-(2,6-dimethylpyridin-4-yl)-3-isopropyl-1H-indol-5-yl)piperidin-1-yl)-2-(2-methoxyethoxy)ethan-1-one], the 50% inhibitory concentration (IC50) is 3.1 nM on human TLR7, 82.5 nM on human TLR8 (setting [1]) and 47200 nM on human TLR9 (setting [2]).

For `COCC(=O)N1CCC(c2ccc3[nH]c(-c4cc(C)nc(C)c4)c(C(C)C)c3c2)CC1` [Example 115, 1-(4-(2-(2,6-dimethylpyridin-4-yl)-3-isopropyl-1H-indol-5-yl)piperidin-1-yl)-2-methoxyethan-1-one], the IC50 on human TLR7 amounted to 5.4 nM; at human TLR8 (setting [1]), 131 nM; at human TLR9 (setting [2]), 44600 nM.

Turning to `Cc1cc(-c2[nH]c3ccc(C4CCN(C(=O)CO)CC4)cc3c2C(C)C)cc(C)n1` [Example 116, 1-(4-(2-(2,6-dimethylpyridin-4-yl)-3-isopropyl-1H-indol-5-yl)piperidin-1-yl)-2-hydroxyethan-1-one], the IC50 was found to be 3.4 nM against human TLR7, 127 nM at human TLR8 (setting [3]) and 32200 nM at human TLR9 (setting [4]).

As to `Cc1cc(-c2[nH]c3ccc(C4CCN(C(=O)CCO)CC4)cc3c2C(C)C)cc(C)n1` [Example 117, 1-(4-(2-(2,6-dimethylpyridin-4-yl)-3-isopropyl-1H-indol-5-yl)piperidin-1-yl)-3-hydroxypropan-1-one], the IC50 against human TLR7 was 6.6 nM; at human TLR8 (setting [1]), 116 nM; at human TLR9 (setting [2]), more than 50000 nM.

Turning to `Cc1cc(-c2[nH]c3ccc(C4CCN(C(=O)c5c(C)noc5C)CC4)cc3c2C(C)C)cc(C)n1` [Example 119, (3,5-dimethylisoxazol-4-yl)(4-(2-(2,6-dimethylpyridin-4-yl)-3-isopropyl-1H-indol-5-yl)piperidin-1-yl) methanone], the IC50 at human TLR7 turned out to be 6.9 nM; on human TLR8 (setting [1]) it was 96.1 nM; at human TLR9 (setting [2]) it was 5440 nM.
